These results are taken from ChEMBL document CHEMBL4418261, “Pyripyropene derivatives having acat2 inhibiting activity and stable to metabolizing enzymes” (2017).

Series [1] can be described thus: Half life in Sprague-Dawley rat hepatic microsomes at 6 ug/ml by LC-MS method. The note with it: liver microsomes. It is filed as ADME, Microsome.
Series [2] deals with T1, Sterol O-acyltransferase 2 (Mus musculus) (UniProt O88908).
T1 sequence (whole entry): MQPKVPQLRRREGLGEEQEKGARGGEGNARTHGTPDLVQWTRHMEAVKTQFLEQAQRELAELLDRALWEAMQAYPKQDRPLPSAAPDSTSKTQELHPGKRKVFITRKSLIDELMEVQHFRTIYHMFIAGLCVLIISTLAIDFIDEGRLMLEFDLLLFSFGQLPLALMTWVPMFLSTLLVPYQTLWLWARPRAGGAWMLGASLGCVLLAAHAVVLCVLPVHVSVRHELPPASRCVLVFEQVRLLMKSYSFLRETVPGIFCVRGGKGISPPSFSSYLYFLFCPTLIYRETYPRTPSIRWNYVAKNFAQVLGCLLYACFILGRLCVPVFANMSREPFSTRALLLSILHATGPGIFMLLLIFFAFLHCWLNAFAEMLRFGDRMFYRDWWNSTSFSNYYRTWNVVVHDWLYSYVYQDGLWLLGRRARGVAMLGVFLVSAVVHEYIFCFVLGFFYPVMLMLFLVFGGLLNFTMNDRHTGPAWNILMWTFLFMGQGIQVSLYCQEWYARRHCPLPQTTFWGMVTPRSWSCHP
Description: Potency index, ratio of PRD-043 IC50 to test compound IC50 for inhibition ACAT2 in mouse hepatic microsome membranes using [1-14C]oleoyl coenzyme A as substrate incubated for 5 mins. Type of series: microsomes.

Series [3] concerns the target T2, Sterol O-acyltransferase 2 (Mus musculus, UniProt O88908).
T2 sequence (O88908 whole entry): T1 sequence (whole entry)
The series is described as follows: Inhibition of ACAT2 in mouse hepatic microsome membranes using [1-14C]oleoyl coenzyme A as substrate incubated for 5 mins. It is filed as microsomes, Liver.

`COc1ccc(CNC(=O)[C@]2(C)[C@@H](OC(C)=O)CC[C@]3(C)[C@H]4[C@@H](O)c5c(cc(-c6cccnc6)oc5=O)O[C@]4(C)[C@@H](OC(=O)c4ccc(C#N)cc4)C[C@H]32)c(OC)c1`: the half-life (usually how long it takes for the measured level to halve) at 6 ug/ml in series [1] is over 9 h. For the same compound, the Ratio IC50 in series [2] was under 20. Further, the IC50 (commonly the concentration that gives 50% inhibition) in series [3] was under 0.5 nM.

In turn, `Cc1ccccc1[C@@H]1OC[C@@]2(C)[C@@H]3C[C@H](OC(=O)c4ccc(C#N)cc4)[C@@]4(C)Oc5cc(-c6cccnc6)oc(=O)c5[C@H](O)[C@@H]4[C@@]3(C)CC[C@@H]2O1` registered a half-life at 6 ug/ml in series [1] of over 9 h. Besides, in series [2], the Ratio IC50 lay in the range of 10 to 20. The compound further had an IC50 in series [3] of 1 to 10 nM.

In series [1], `CC(=O)O[C@H]1CC[C@]2(C)[C@H]3[C@@H](O)c4c(cc(-c5cccnc5)oc4=O)O[C@]3(C)[C@@H](OC(=O)c3ccc(C#N)cc3)C[C@H]2[C@]1(C)C(=O)O` came in with a half-life at 6 ug/ml of over 9 h. Also, the Ratio IC50 in series [2] was under 20. In series [3], this compound yielded an IC50 of under 0.5 nM.

The compound `COC(=O)[C@]1(C)[C@@H](OC(C)=O)CC[C@]2(C)[C@H]3[C@@H](O)c4c(cc(-c5cccnc5)oc4=O)O[C@]3(C)[C@@H](OC(=O)c3ccc(C#N)cc3)C[C@H]21` displayed a half-life at 6 ug/ml in series [1] of over 9 h. The Ratio IC50 in series [2] is 10 to 20. For the same compound, the IC50 in series [3] was in the range of 0.5 to 1 nM.

`Cc1ccc([C@@H]2OC[C@@]3(C)[C@@H]4C[C@H](OC(=O)c5ccc(F)cc5)[C@@]5(C)Oc6cc(-c7cccnc7)oc(=O)c6[C@H](O)[C@@H]5[C@@]4(C)CC[C@@H]3O2)c(C)c1` had a half-life at 6 ug/ml in series [1] of over 9 h. For the same compound, the Ratio IC50 in series [2] was in the range of 10 to 20.

Consider `C[C@@]12CO[C@@H](c3cccc4ccccc34)O[C@H]1CC[C@@]1(C)[C@H]2C[C@H](OC(=O)c2ccc(C#N)cc2)[C@@]2(C)Oc3cc(-c4cccnc4)oc(=O)c3[C@H](O)[C@H]12`, for which, in series [1], the half-life at 6 ug/ml is over 9 h. The Ratio IC50 in series [2] lay within 10 to 20.

For `CN(C)c1ccc([C@@H]2OC[C@@]3(C)[C@@H]4C[C@H](OC(=O)c5ccc(C#N)cc5)[C@@]5(C)Oc6cc(-c7cccnc7)oc(=O)c6[C@H](O)[C@@H]5[C@@]4(C)CC[C@@H]3O2)cc1`, the half-life at 6 ug/ml in series [1] is over 9 h. Also, the Ratio IC50 in series [2] is under 20.
